Reference: ChEMBL document CHEMBL3217594, “Structureactivity relationships of methyl-lysine reader antagonists” (Medchemcomm, 2012)
Active and inactive are the calls of the source. No cut-off for these calls is given here.

Columns and labels:
[1] = molecular target: T1, Chromobox protein homolog 7 (Homo sapiens, UniProt O95931); assay: Antagonist activity at Flag-tagged CBX7 (unknown origin) assessed as inhibition of CBX7/biotinylated H3K9Me3 peptide interaction after 30 mins by AlphaScreen assay
T1 sequence (O95931 whole entry): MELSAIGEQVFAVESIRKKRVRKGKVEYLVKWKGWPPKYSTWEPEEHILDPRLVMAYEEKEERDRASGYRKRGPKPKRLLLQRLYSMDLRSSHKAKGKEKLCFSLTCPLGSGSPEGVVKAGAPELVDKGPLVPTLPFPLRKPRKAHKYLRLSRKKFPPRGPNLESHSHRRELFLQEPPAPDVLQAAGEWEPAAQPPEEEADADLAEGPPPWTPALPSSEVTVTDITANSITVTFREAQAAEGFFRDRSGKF

[2] = molecular target: T2, Chromobox protein homolog 7 (Homo sapiens) (UniProt O95931); assay: Antagonist activity at Flag-tagged CBX7 (unknown origin) assessed as inhibition of CBX7/biotinylated H3K9Me3 peptide interaction at 30 uM after 30 mins by AlphaScreen assay
T2 sequence (whole entry): T1 sequence (O95931 whole entry)

[3] = molecular target: T3, MBT domain-containing protein 1 (Homo sapiens, UniProt Q05BQ5); assay: Antagonist activity at MBTD1 (unknown origin) assessed as inhibition of MBTD1/biotinylated H4K20Me1 peptide interaction after 30 mins by AlphaScreen assay
[4] = molecular target: T4, Scm-like with four MBT domains protein 1 (Homo sapiens, UniProt Q9UHJ3); assay: Antagonist activity at SFMBT1 (unknown origin) assessed as inhibition of SFMBT1/biotinylated H3K9Me1 peptide interaction after 30 mins by AlphaScreen assay
T4 sequence (Q9UHJ3 whole entry): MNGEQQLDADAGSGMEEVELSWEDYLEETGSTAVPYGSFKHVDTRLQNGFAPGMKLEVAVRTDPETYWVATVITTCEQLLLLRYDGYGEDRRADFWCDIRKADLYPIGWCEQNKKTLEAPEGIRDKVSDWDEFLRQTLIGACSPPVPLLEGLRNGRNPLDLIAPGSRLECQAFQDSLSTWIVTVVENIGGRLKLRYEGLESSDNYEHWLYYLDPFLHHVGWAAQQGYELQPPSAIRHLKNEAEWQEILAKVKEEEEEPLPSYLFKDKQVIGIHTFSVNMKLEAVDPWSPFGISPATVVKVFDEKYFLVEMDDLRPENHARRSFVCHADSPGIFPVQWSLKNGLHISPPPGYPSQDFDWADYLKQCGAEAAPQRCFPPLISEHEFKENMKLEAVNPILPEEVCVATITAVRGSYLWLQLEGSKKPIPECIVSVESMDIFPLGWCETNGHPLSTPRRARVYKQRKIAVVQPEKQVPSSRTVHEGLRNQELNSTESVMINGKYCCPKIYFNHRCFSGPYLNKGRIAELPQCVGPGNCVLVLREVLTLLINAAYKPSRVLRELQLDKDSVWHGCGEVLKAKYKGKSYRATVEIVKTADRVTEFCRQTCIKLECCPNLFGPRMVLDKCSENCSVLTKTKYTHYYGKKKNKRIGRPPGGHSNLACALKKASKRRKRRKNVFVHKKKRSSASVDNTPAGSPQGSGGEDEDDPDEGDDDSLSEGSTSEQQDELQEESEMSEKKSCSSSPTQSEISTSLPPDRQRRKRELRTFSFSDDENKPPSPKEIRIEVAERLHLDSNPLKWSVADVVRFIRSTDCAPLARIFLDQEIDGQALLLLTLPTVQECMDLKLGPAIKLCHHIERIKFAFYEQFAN

[5] = molecular target: T5, Scm-like with four MBT domains protein 1 (Homo sapiens) (UniProt Q9UHJ3); assay: Antagonist activity at SFMBT1 (unknown origin) assessed as inhibition of SFMBT1/biotinylated H3K9Me1 peptide interaction at 30 uM after 30 mins by AlphaScreen assay
T5 sequence (whole entry): T4 sequence (Q9UHJ3 whole entry)

[6] = molecular target: T6, Lethal(3)malignant brain tumor-like protein 3 (Homo sapiens) (UniProt Q96JM7); assay: Antagonist activity at His-tagged L3MBTL3 (unknown origin) assessed as inhibition of L3MBTL3/biotinylated H4K20Me2 peptide interaction at 30 uM after 30 mins by AlphaScreen assay
T6 sequence (whole entry): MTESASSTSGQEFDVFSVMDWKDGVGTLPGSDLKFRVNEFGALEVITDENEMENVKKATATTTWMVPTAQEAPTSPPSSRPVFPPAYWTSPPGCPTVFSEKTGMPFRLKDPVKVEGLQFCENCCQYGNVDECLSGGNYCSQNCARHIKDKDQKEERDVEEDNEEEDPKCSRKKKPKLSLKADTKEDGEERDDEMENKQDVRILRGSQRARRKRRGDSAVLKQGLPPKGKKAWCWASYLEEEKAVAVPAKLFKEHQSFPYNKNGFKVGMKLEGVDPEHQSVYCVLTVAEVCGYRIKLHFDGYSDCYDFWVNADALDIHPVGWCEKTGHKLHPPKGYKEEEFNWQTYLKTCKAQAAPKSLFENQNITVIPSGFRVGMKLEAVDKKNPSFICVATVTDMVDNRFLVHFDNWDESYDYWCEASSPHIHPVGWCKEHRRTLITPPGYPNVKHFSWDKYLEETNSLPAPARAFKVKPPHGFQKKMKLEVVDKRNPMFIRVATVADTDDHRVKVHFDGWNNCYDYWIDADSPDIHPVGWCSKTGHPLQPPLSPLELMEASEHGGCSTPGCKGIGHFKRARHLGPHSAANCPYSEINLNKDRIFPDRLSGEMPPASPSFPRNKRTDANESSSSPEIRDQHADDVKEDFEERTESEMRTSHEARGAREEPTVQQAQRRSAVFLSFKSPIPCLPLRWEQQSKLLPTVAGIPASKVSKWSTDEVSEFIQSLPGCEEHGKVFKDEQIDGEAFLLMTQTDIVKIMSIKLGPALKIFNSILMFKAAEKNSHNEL

[7] = molecular target: T3, MBT domain-containing protein 1; assay: Antagonist activity at MBTD1 (unknown origin) assessed as inhibition of MBTD1/biotinylated H4K20Me1 peptide interaction at 30 uM after 30 mins by AlphaScreen assay
[8] = molecular target: TP53-binding protein 1 (Homo sapiens) (UniProt Q12888); assay: Effect on GST-fused 53BP1 Tudor domain (unknown origin)/biotinylated H4K20Me1 peptide interaction assessed as binding of 53BP1 to H4K20Me1 at 5 uM by pull down assay based western blot analysis
TP53-binding protein 1 (Homo sapiens), sequence (Q12888 whole entry, the tested form may be a part): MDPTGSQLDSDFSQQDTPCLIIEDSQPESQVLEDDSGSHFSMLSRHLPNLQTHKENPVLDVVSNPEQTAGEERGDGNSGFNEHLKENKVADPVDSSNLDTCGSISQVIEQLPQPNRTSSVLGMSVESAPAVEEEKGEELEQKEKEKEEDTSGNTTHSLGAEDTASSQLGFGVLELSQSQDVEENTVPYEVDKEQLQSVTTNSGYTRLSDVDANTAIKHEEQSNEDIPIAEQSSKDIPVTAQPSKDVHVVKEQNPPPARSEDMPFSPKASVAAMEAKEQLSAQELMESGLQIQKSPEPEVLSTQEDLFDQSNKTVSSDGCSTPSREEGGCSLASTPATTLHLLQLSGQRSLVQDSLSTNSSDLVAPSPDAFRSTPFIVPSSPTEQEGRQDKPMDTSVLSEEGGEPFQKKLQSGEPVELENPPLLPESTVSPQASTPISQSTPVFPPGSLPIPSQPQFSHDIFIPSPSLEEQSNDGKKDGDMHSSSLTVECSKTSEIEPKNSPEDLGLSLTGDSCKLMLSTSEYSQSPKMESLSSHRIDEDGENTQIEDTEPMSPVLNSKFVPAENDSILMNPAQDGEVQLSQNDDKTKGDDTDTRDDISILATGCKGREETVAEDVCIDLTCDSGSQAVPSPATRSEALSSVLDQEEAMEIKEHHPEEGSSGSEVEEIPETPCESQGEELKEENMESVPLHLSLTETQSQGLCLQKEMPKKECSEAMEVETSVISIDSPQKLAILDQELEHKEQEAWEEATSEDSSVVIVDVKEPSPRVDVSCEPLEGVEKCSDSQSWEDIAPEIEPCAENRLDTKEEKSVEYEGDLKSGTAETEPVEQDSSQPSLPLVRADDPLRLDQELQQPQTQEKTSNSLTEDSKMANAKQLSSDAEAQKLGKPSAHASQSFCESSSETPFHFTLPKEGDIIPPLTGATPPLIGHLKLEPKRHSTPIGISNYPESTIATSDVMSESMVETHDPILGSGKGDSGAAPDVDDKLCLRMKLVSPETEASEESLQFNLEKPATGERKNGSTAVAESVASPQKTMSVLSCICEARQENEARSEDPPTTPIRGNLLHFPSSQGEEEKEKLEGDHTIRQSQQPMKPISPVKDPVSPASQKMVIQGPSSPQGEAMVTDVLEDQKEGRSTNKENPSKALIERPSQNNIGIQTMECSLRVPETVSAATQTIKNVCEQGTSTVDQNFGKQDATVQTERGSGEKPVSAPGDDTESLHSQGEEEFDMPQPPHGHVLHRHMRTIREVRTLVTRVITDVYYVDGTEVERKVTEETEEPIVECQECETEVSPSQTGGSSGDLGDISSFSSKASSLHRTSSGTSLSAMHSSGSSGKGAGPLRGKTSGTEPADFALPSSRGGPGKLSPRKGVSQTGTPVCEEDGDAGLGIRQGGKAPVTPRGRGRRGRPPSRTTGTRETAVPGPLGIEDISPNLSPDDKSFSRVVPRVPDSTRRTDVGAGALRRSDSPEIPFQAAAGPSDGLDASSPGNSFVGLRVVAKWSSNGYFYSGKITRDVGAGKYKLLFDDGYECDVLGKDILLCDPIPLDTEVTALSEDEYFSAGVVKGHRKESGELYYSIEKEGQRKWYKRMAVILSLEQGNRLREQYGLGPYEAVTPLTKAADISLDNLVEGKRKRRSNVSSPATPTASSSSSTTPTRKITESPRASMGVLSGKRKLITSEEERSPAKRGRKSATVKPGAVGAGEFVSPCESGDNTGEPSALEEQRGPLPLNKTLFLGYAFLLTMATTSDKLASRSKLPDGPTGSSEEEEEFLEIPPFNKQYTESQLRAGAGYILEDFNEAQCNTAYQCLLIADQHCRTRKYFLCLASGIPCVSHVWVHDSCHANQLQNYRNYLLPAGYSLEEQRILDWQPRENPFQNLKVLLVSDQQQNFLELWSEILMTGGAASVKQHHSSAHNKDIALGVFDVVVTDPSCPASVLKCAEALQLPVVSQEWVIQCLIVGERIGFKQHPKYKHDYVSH

T3 sequence (Q05BQ5 whole entry, the tested form may be a part): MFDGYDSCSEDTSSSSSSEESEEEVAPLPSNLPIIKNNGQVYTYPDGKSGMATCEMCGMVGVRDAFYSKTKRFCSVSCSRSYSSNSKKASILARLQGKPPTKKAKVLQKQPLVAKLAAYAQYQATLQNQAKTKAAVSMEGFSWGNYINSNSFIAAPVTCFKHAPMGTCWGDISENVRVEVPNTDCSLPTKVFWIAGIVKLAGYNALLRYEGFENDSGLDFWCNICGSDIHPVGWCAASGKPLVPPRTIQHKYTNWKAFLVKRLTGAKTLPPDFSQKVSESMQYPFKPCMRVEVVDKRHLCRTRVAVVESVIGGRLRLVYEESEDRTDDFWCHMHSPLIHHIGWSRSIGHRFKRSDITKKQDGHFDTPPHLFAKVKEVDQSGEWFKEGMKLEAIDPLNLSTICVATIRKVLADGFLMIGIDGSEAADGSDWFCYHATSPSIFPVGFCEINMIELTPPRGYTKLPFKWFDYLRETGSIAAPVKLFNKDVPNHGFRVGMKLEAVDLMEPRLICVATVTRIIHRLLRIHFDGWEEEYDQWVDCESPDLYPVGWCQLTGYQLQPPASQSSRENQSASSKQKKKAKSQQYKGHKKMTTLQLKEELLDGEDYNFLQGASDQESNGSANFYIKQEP

Row | SMILES | IC50 [1] | inhibition [2] | IC50 [3] | IC50 [4] | inhibition [5] | inhibition [6] | inhibition [7] | Activity [8]
1 | Brc1cccc(CN2CCC(N3CCCC3)CC2)c1 | > 30 µM | inactive | 18.6 µM | > 30 µM | inactive | – | – | –
2 | O=C(c1cccc(Br)c1)N1CCN(C2CCCC2)CC1 | > 30 µM | 1% | > 30 µM | > 30 µM | inactive | 5% | inactive | –
3 | CC1CCCN1C1CCN(C(=O)c2cccc(Br)c2)CC1 (stereo not given) | > 30 µM | inactive | > 30 µM | > 30 µM | inactive | 25% | 16% | –
4 | CC(c1cccc(Br)c1)N1CCC(N2CCCC2)CC1 (racemic) | > 30 µM | inactive | 9 µM | > 30 µM | inactive | – | – | –
5 | O=C(O)c1cccc(C(=O)N2CCC(N3CCCC3)CC2)c1 | > 30 µM | 4% | > 30 µM | > 30 µM | inactive | – | 4% | –
6 | O=C(c1cccc(Br)c1)N1CCC(N2CCCC2)C1 (stereo not given) | > 30 µM | 4% | > 30 µM | > 30 µM | inactive | 40% | 13% | –
7 | C[N+]1(C2CCN(C(=O)c3cccc(Br)c3)CC2)CCCC1 | > 30 µM | 17% | > 30 µM | > 30 µM | inactive | 13% | 3% | –
8 | O=C(c1cccc(Br)c1)N1CCC(C2CCCN2)CC1 (stereo not given) | > 30 µM | inactive | 9.2 µM | > 30 µM | inactive | 52% | – | –
9 | O=C(c1cccc(Br)c1)N1CCC(N2CCCC2)CC1 | > 30 µM | 11% | > 30 µM | > 30 µM | 12% | – | 44% | 124%
10 | CN1CCCC1C1CCN(C(=O)c2cccc(Br)c2)CC1 (stereo not given) | > 30 µM | inactive | > 30 µM | > 30 µM | inactive | – | 32% | –
11 | O=C(c1cccc(Br)c1)N1CCC(N2CCCCC2)CC1 | > 30 µM | 3% | 29.7 µM | > 30 µM | inactive | 21% | – | 120%
12 | CN(C)C1CCN(C(=O)c2cccc(Br)c2)CC1 | > 30 µM | inactive | > 30 µM | > 30 µM | inactive | 18% | 1% | –
13 | O=S(=O)(c1cccc(Br)c1)N1CCC(N2CCCC2)CC1 | > 30 µM | inactive | 21.9 µM | > 30 µM | inactive | – | – | –
14 | CNC1CCN(C(=O)c2cccc(Br)c2)CC1 | > 30 µM | 3% | > 30 µM | > 30 µM | inactive | 9% | 3% | –
15 | O=C(c1cccc(Br)c1)N1CCC(N2CCC2)CC1 | > 30 µM | 11% | > 30 µM | > 30 µM | inactive | – | 20% | –
